Reference: PMC12459020, “Chemical Probes that Target a Dissociative LuxR-Type Quorum Sensing Receptor in Gram-Negative Bacteria” (ACS Chemical Biology, 2025)
Like-named read-outs stand apart in the source and are kept apart here.

Assays:
[1] = system: P. stewartii ΔesaI (ESN51); assay: Mucoidy (exopolysaccharide) phenotypic assay on CPG agar; format: cell-based, Pantoea stewartii
Text: In P. stewartii, EsaR regulates the production of the exopolysaccharide stewartan, which clogs the xylem of infected plants and leads to the wilt and lesions characteristic of Stewart’s wilt. EsaR binds directly to the rcsA promoter to repress transcription at low cell density, and when this repression is relieved at high cell density, RcsA contributes to activation of the cps gene cluster, which encodes the stewartan biosynthetic pathway. Exopolysaccharide production can be visualized by the growth of mucoid colonies on casamino acid-peptone-glucose (CPG) agar plates, and this phenotypic assay is commonly used to evaluate EsaR-mediated QS in P. stewartii. , To investigate the ability of the synthetic EsaR agonists uncovered here to regulate a QS-controlled phenotype in P. stewartii, selected compounds were tested for their ability to induce mucoidy in the P. stewartii (ΔesaI) strain, ESN51 (Figure ).
P. stewartii ΔesaI (ESN51) was grown on Casamino Peptone Glucose (CPG) agar (1 g/L casamino acids, 10 g/L peptone, 10 g/L glucose, 17 g/L agar) supplemented with a 1:1000 dilution of compound stocks or DMSO. Plates were incubated at 28 °C for 2 days without shaking before imaging with a smartphone camera (Apple iPhone X). Images are representative of at least two biological replicates.

[2] = molecular target: T1, EsaR (Pantoea stewartii subsp. stewartii, UniProt P54293); assay: cell-based; conditions: for activation at 100 µM / inhibition at 100 µM: 3.5 h; for activation at 100 µM: read-out: EsaR-repressed (pesaR) [%] agonism; for inhibition at 100 µM: read-out: EsaR-repressed (pesaR) antagonism
T1 construct: expressed in transfected cells; host or cells: E. coli JLD271 (K12 ΔsdiA), arabinose-induced pJN105-esaR
Text: (§1) EsaR transcriptional activation and repression were examined using E. coli and P. stewartii reporters (strains and plasmids listed in Table S1; see Methods section for assay details). […] We constructed reporters in E. coli based on previously reported EsaR reporters (Table S1). Each strain contained an EsaR expression plasmid (pJN105-esaR) and a reporter plasmid with either an EsaR-activated promoter (pesaS) or an EsaR-repressed promoter (pesaR) upstream of luxABCDE or GFP.
(§2) Gibson assembly was used to create all constructs. Plasmid pJN105-esaR was created by amplifying esaR from pAC-esaR and inserting it into pJN105. pesaSlux was created by inserting pesaS, amplified from pPesaR-AC:gfp, into the pCS-pesaRlux backbone. The pesaR promoter was amplified from pCS-pesaRlux and inserted into the pPesaR-AC:gfp backbone to create pesaR:GFP. P. stewartii reporter strains were created by transforming pesaR:GFP or pPesaR-AC:gfp into ESN51 by conjugation using E. coli S17 λpir as the donor strain. See SI for details of E. coli ExpR2 reporter construction.
(§3) Overnight cultures were diluted 1:10 in LB medium with appropriate antibiotics and grown at 37 °C (200 rpm) to an OD600 of 0.22–0.27 before induction with 4 mg mL^–1 arabinose. OD600 was measured by placing 200 μL of culture into a 96-well plate and reading optical density using the BioTek Synergy 2 plate reader. Assays were performed in technical triplicate in clear-bottom, white and clear-bottom, black 96-well microtiter plates (Corning Costar 3903 and 3904) for luminescence and fluorescence reporters, respectively. Compounds were dissolved in DMSO, and 2 μL of this stock, or DMSO as a negative control, was added to each well prior to adding 198 μL of induced culture. Plates were incubated at 37 °C (200 rpm) for 3.5 h. Each well was mixed by pipetting before reading OD600 and either luminescence or fluorescence. Single-point screens were performed with one or two biological replicates, and all dose–response curves were performed in biological triplicate. EC50 values were calculated based on a nonlinear regression of log(concentration) vs response (three parameters) using GraphPad Prism 9 software.

[3] = molecular target: T1, EsaR; assay: cell-based; conditions: for activation at 100 µM / inhibition at 100 µM: 3.5 h; for activation at 100 µM: read-out: EsaR-activated (pesaS) [%] agonism; for inhibition at 100 µM: read-out: EsaR-activated (pesaS) antagonism; for EsaR agonism, in words: E. coli EsaR reporters, primary screen at 100 μM
Text: as §1, §2, §3

[4] = molecular target: ExpR2 (Pectobacterium versatile, UniProt Q1A4U9); assay: E. coli GFP reporter with ExpR2-activated promoter (prsmA); format: cell-based, Pectobacterium versatile Ecc71
Text: One difference between our prior study in ExpR1/2 and that reported here in EsaR is that the former relied on QS-controlled phenotypes in P. versatile Ecc71 (i.e., cellulase and pectate lyase activity) to measure compound activity, unlike the heterologous transcriptional reporters used for EsaR. To further investigate the differences in antagonism assay data observed between EsaR and ExpR1/2, an E. coli reporter was created with an ExpR2 protein production plasmid (pJN105-expR2) and a reporter plasmid with an ExpR2-activated promoter (prsmA) controlling GFP (see Methods section). […] We return to possible explanations for the differences observed between the ExpR2 phenotypic assays and transcriptional reporters below.
Supporting Information — Stoutland et al.
Additional experimental methods.
Plasmid and reporter strain construction for ExpR2 reporters
Gibson assembly was used to create all constructs. Strains, plasmids and primers are listed in Ta b l es S1 and S2. Plasmid pJN105-expR2 was created by amplifying expR2 from Pectobacterium versatile Ecc71 genomic DNA and inserting it into pJN105, amplified from pJN105-esaR. […] E. coli reporter strains were created by transforming pJN105-expR2 and prsmA:GFP into electrocompetent E. coli JLD271.
E. coli ExpR2 reporter assay
Single colonies of the reporter strain were used to inoculate LB medium supplemented with appropriate antibiotics, and these cultures were grown overnight at 37 °C with shaking at 200 rpm.
Overnight cultures were diluted 1:10 in LB medium with appropriate antibiotics and grown at 37 °C to an OD600 of 0.22–0.27 before induction with 0.4 mg/mL arabinose. Arabinose concentration was optimized to maximize dynamic range of reporter data. Compounds were dissolved in DMSO, and 2 µL of this stock, or DMSO as a negative control, was added to each well of a clear-bottom, black 96-well plate prior to adding 198 µL of induced culture. Plates were incubated at 37 °C with shaking at 200 rpm for 3.5 hr. Assays were performed in technical and biological triplicate. Each well was mixed by pipetting before reading fluorescence and OD600. EC50 values were calculated based on a nonlinear regression of log(concentration) vs. response - variable slope (four parameters) using GraphPad Prism 9 software.

[5] = system: LuxR; conditions: cited from earlier work; for LuxR antagonism: 5 µM compound against 5 µM OHHL, negative values indicate potential activators, ref 6 (SI; Palmer et al., 2011); for LuxR [%] (agonism, activation): compounds at 200 μM, luminescence in V. fischeri ES114 (ΔluxI), ref Palmer et al., 2011 (main ref 44, SI ref 6)
[6] = system: ExpR1; conditions: cited from earlier work; for ExpR1 antagonism: 5 µM compound against 5 µM OHHL, negative values indicate potential activators, ref 6 (SI; Palmer et al., 2011); for ExpR1 [%] (agonism, activation): compounds at 200 μM, cellulase activity in P. versatile AC5117, ref Palmer et al., 2011 (main ref 44, SI ref 6)
[7] = system: ExpR2; conditions: cited from earlier work; for ExpR2 antagonism (percent inhibition): 5 µM compound against 5 µM OHHL, negative values indicate potential activators; for ExpR2 [%] (agonism, percent activation): compounds at 200 μM, cellulase activity in P. versatile AC5099, ref Palmer et al., 2011 (main ref 44, SI ref 6)
[8] = concentration not given, CPG agar, ESN51
[9] = ref 6 (SI; Palmer et al., 2011)
[10] = previously reported phenotypic reporter data, ref 6 (SI; Palmer et al., 2011)
[11] = 10 μM in CPG agar, ESN51, 2 days at 28 °C
[12] = 100 μM in CPG agar, ESN51, 2 days at 28 °C

T1 sequence (P54293 whole entry): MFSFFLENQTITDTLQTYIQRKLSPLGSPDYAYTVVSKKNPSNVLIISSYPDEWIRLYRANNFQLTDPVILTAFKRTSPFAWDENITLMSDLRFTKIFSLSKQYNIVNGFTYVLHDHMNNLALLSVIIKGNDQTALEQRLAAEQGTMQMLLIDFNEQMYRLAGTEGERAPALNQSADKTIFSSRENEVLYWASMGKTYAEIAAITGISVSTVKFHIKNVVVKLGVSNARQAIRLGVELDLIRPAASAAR
Sequence of ExpR2 (Pectobacterium versatile, UniProt Q1A4U9) (Q1A4U9 entry or part of it): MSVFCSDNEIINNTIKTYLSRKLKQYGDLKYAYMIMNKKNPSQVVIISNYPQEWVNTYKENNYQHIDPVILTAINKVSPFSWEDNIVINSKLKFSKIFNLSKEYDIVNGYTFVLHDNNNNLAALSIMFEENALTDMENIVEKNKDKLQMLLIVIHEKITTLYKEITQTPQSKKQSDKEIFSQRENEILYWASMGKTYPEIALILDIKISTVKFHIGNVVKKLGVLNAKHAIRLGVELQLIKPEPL

Row | SMILES | activation at 100 µM [2] | inhibition at 100 µM [2] | activation at 100 µM [3] | inhibition at 100 µM [3] | LuxR antagonism [5] | LuxR [%] (agonism, activation) [5] | ExpR1 antagonism [6] | ExpR1 [%] (agonism, activation) [6] | ExpR2 antagonism (percent inhibition) [7, 9] | ExpR2 [%] (agonism, percent activation) [7] | induction of mucoidy [1, 11] | other results
1 | CCCCCCS(=O)(=O)N[C@H]1CCOC1=O [A11] |  |  |  |  |  |  |  |  |  |  |  | induction of mucoidy [1, 8]: did not induce mucoidy
2 | O=C(CCc1ccc(Br)cc1)N[C@H]1CCOC1=O [B7, 4-Br phenylpropanoyl HL] | 66% | -36% | 56% | -50% | 80% | 2% | 78% | 3% | 66% | 8% |  | EsaR agonism, in words [3]: agonized EsaR; ExpR2 agonism, in words ([4]; E. coli ExpR2 GFP reporter): behaved as an agonist; IC50 [7, 10]: 2750 nM
3 | O=C(Cc1cccc([N+](=O)[O-])c1)N[C@H]1CCOC1=O [C14, 3-NO2 PHL] | 22% | -3% | 62% | -56% | -18% | 130% | -15% | 115% | -4% | 103% |  | EC50 [2]: ≥ 98000 nM; EC50 [3]: ≥ 68000 nM; EsaR agonism, in words [3]: moderate activator; EC50 [4]: 160 nM; ExpR2 agonism, in words ([4]; E. coli ExpR2 GFP reporter): acted as agonists; fold less potent than OHHL in ExpR2 E. coli reporter ([4]; E. coli ExpR2 GFP reporter): approximately 40 fold; EC50 [7, 10]: 500 nM
4 | O=C1OCC[C@@H]1NS(=O)(=O)c1cccc(Cl)c1 [GAF 28] |  |  |  |  |  |  |  |  |  |  | induced mucoidy | EC50 [2]: 2200 nM; EC50 [3]: 2200 nM
5 | O=C1OCC[C@H]1NS(=O)(=O)c1ccc(Cl)c(Cl)c1 [GAF 55] |  |  |  |  |  |  |  |  |  |  |  | EsaR agonism at 100 μM (bound stated in text) ([3]; 100 μM, E. coli EsaR reporter): less than 50%; induction of mucoidy [1, 8]: did not induce mucoidy
6 | O=C1OCC[C@@H]1NS(=O)(=O)c1ccccc1 [GAF 57] |  |  |  |  |  |  |  |  |  |  | not at 10 μM | induction of mucoidy [1, 12]: induced mucoidy
7 | CCCCCC(O)CC(=O)N[C@H]1CCOC1=O (stereo partly shown) [H2] |  |  |  |  |  |  |  |  |  |  | not at 10 μM | fold less potent than OOHL in EsaR ([3]; E. coli EsaR reporter EC50 values): ~20 fold; induction of mucoidy [1, 12]: induced mucoidy
8 | CCCC(=O)CC(=O)N[C@H]1CCOC1=O [OHHL, 3-oxo-hexanoyl HL, reference compound] | 100% | 0% | 100% | 0% | 0% | 100% | 0% | 100% | 0% | 100% | smooth | EC50 [4]: 3.9 nM; ExpR2 agonism, in words ([4]; E. coli ExpR2 GFP reporter): acted as agonists; EC50 [7, 10]: 2000 nM
9 | CCCCCCCCCCCC(=O)CC(=O)N[C@H]1CCOC1=O [OtDHL, reference compound] | 13% | -53% | 16% | -41% | 5% | 4% | 4% | 1% | 7% | 9% |  | 
10 | CCCCCCCCCCCC(=O)N[C@H]1CCOC1=O [dDHL, reference compound] | 35% | -27% | 45% | -63% | 73% | 1% | 77% | 0% | 62% | 31% |  | 
11 | CCCCCCCCCCCCCCCC(=O)N[C@H]1CCOC1=O [hDHL, reference compound] | 22% | -71% | 25% | -11% | 27% | 2% | 4% | 0% | 7% | 11% |  | 
